Measurements: ChEMBL document CHEMBL5576037, “Discovery of the first ataxia telangiectasia and Rad3-related (ATR) degraders for cancer treatment” (Eur J Med Chem, 2024)
Activity calls are given as the source filed them. The rule behind the calls is not given here.

How the values were obtained:
Mus musculus = assay: Effect on CHK1 protein expression in BALB/c nude mouse xenografted with human LoVo cells at 12.5 to 25 mg/kg, ip administered once daily for 15 days by Western blot analysis; assay type: functional, organism-based; settings: dose 12.5-25 mg/kg, time 15.0 day
LoVo [1] = assay: Downregulation of total ATR protein level in human LoVo cells incubated for 72 hrs by Western blot analysis; assay type: functional, cell-based; settings: dose 0.16-10 µM
LoVo [2] = assay: Cell cycle arrest in human LoVo cells assessed as accumulation of cells at S phase at 1 uM incubated for 72 hrs by PI staining based flow cytometric analysis (reference value: 25.5 %); assay type: functional
[3] = Toxicity in BALB/c nude mouse xenografted with human LoVo cells assessed as effect on liver at 12.5 to 25 mg/kg, ip administered twice daily for 15 days by H and E staining based analysis; assay type: organism-based; settings: in vivo, 360 h, dose 12.5-25 mg/kg, time 15 day
[4] = MRT (0 to infinity) in BALB/c nude mouse xenografted with human LoVo cells at 25 mg/kg, ip administered as single dose and measured after 12 hrs by LC-MS/MS analysis; assay type: ADME, organism-based; settings: in vivo
LoVo [5] = assay: Cell cycle arrest in human LoVo cells assessed as accumulation of cells at S phase at 0.5 uM incubated for 72 hrs by PI staining based flow cytometric analysis (reference value: 25.5 %); assay type: functional
[6] = Half-life in BALB/c nude mouse xenografted with human LoVo cells at 25 mg/kg, ip administered as single dose and measured after 12 hrs by LC-MS/MS analysis; assay type: ADME, organism-based; settings: in vivo
[7] = Toxicity in BALB/c nude mouse xenografted with human LoVo cells assessed as effect on spleen at 12.5 to 25 mg/kg, ip administered twice daily for 15 days by H and E staining based analysis; assay type: organism-based; settings: in vivo, 360 h, dose 12.5-25 mg/kg, time 15 day
LoVo [8] = assay: Cell cycle arrest in human LoVo cells assessed as accumulation of cells at G2/M phase at 0.5 uM incubated for 72 hrs by PI staining based flow cytometric analysis (reference value: 22.2 %); assay type: functional
[9] = molecular target: Serine/threonine-protein kinase ATR (Homo sapiens, UniProt Q13535); assay: Inhibition of ATR phosphorylation at Thr1989 residue in human LoVo cells incubated for 72 hrs by Western blot analysis; assay type: cell-based; settings: dose 0.16-10 µM
[10] = molecular target: T1, Protein cereblon/Serine/threonine-protein kinase ATR (Homo sapiens, UniProt Q13535+Q96SW2); assay: PROTAC activity at CRBN/ATR in human LoVo cells assessed as induction of ATR degradation by measuring maximal efficacy after 72 hrs by Western blot analysis relative to control; assay type: cell-based
[11] = Toxicity in BALB/c nude mouse xenografted with human LoVo cells assessed as body weight loss at 12.5 mg/kg, ip administered once daily for 15 days in presence of cisplatin; assay type: organism-based; settings: in vivo, 360 h, time 15 day
[12] = molecular target: T1, Protein cereblon/Serine/threonine-protein kinase ATR; assay: PROTAC activity at CRBN/ATR in human LoVo cells assessed as induction of ATR degradation at 2.5 uM preincubated with MLN4924 for 4 hrs followed by compound addition and measured after 48 hrs by Western blot analysis; assay type: cell-based
[13] = Tmax in BALB/c nude mouse xenografted with human LoVo cells at 25 mg/kg, ip administered as single dose and measured after 12 hrs by LC-MS/MS analysis; assay type: ADME, organism-based; settings: in vivo
LoVo [14] = assay: Induction of SIPA1L1 degradation in human LoVo cells at 1 uM incubated for 24 hrs by global proteomic profiling analysis; assay type: cell-based
LoVo [15] = assay: Cell cycle arrest in human LoVo cells assessed as accumulation of cells at G2/M phase at 1 uM incubated for 72 hrs by PI staining based flow cytometric analysis (reference value: 22.2 %); assay type: functional
[16] = molecular target: DNA-dependent protein kinase catalytic subunit (Homo sapiens) (UniProt P78527); assay: Induction of DNA-PK degradation in human LoVo cells at 0.16 to 10 uM incubated for 72 hrs by Western blot analysis; assay type: cell-based; settings: dose 0.16-10 µM
[17] = molecular target: T2, Serine/threonine-protein kinase Chk1 (Homo sapiens) (UniProt O14757); assay: Inhibition of CHK1 phosphorylation at Ser345 residue in human LoVo cells incubated for 72 hrs by Western blot analysis; assay type: cell-based; settings: dose 0.16-10 µM
T2 sequence (whole entry): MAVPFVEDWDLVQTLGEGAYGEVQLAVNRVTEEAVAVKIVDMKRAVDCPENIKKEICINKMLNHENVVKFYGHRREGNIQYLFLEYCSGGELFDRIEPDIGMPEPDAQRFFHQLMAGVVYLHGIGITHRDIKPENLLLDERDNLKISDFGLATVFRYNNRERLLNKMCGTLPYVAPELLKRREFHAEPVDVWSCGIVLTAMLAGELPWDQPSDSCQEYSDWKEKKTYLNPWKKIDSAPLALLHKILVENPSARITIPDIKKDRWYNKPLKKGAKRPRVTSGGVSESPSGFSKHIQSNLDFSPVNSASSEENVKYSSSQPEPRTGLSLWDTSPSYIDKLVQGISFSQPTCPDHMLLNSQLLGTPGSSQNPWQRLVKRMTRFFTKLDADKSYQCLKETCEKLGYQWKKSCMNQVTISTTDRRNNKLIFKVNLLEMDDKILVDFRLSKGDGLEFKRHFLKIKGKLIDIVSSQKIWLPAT

LoVo [18] = assay: Antitumor activity against human LoVo cells xenografted in BALB/c nude mouse assessed as tumor growth inhibition at 12.5 mg/kg, ip administered […] for 15 days relative to control; assay type: functional; settings: 360 h, time 15 day, read-out: TGI
[19] = AUC (0 to infinity) in BALB/c nude mouse xenografted with human LoVo cells at 25 mg/kg, ip administered as single dose and measured after 12 hrs by LC-MS/MS analysis; assay type: ADME, organism-based; settings: in vivo
LoVo [20] = assay: Cell cycle arrest in human LoVo cells assessed as accumulation of cells at G0/G1 phase at 0.5 uM incubated for 72 hrs by PI staining based flow cytometric analysis (reference value: 52.3 %); assay type: functional
LoVo [21] = assay: Induction of apoptosis in human LoVo cells assessed as apoptotic rate at 0.5 uM incubated for 48 hrs by Annexin V-FITC/PI staining based flow cytometric analysis (reference value: 5.32 %); assay type: functional
[22] = molecular target: T1, Protein cereblon/Serine/threonine-protein kinase ATR; assay: PROTAC activity at CRBN/ATR in human LoVo cells assessed as induction of ATR degradation at 2.5 uM preincubated with pomalidomide for 4 hrs followed by compound addition and measured after 48 hrs by Western blot analysis; assay type: cell-based
[23] = molecular target: Phosphatidylinositol 4,5-bisphosphate 3-kinase catalytic subunit alpha isoform (Homo sapiens) (UniProt P42336); assay: Induction of PI3K-alpha degradation in human LoVo cells at 0.16 to 10 uM incubated for 72 hrs by Western blot analysis; assay type: cell-based; settings: dose 0.16-10 µM
[24] = Toxicity in BALB/c nude mouse xenografted with human LoVo cells assessed as effect on kidney at 12.5 to 25 mg/kg, ip administered twice daily for 15 days by H and E staining based analysis; assay type: organism-based; settings: in vivo, 360 h, dose 12.5-25 mg/kg, time 15 day
[25] = molecular target: T1, Protein cereblon/Serine/threonine-protein kinase ATR; assay: PROTAC activity at CRBN/ATR in human LoVo cells assessed as induction of ATR degradation at 2.5 uM preincubated with MG132 for 4 hrs followed by compound addition and measured after 48 hrs by Western blot analysis; assay type: cell-based

T1 sequence (Q13535 whole entry, looked up): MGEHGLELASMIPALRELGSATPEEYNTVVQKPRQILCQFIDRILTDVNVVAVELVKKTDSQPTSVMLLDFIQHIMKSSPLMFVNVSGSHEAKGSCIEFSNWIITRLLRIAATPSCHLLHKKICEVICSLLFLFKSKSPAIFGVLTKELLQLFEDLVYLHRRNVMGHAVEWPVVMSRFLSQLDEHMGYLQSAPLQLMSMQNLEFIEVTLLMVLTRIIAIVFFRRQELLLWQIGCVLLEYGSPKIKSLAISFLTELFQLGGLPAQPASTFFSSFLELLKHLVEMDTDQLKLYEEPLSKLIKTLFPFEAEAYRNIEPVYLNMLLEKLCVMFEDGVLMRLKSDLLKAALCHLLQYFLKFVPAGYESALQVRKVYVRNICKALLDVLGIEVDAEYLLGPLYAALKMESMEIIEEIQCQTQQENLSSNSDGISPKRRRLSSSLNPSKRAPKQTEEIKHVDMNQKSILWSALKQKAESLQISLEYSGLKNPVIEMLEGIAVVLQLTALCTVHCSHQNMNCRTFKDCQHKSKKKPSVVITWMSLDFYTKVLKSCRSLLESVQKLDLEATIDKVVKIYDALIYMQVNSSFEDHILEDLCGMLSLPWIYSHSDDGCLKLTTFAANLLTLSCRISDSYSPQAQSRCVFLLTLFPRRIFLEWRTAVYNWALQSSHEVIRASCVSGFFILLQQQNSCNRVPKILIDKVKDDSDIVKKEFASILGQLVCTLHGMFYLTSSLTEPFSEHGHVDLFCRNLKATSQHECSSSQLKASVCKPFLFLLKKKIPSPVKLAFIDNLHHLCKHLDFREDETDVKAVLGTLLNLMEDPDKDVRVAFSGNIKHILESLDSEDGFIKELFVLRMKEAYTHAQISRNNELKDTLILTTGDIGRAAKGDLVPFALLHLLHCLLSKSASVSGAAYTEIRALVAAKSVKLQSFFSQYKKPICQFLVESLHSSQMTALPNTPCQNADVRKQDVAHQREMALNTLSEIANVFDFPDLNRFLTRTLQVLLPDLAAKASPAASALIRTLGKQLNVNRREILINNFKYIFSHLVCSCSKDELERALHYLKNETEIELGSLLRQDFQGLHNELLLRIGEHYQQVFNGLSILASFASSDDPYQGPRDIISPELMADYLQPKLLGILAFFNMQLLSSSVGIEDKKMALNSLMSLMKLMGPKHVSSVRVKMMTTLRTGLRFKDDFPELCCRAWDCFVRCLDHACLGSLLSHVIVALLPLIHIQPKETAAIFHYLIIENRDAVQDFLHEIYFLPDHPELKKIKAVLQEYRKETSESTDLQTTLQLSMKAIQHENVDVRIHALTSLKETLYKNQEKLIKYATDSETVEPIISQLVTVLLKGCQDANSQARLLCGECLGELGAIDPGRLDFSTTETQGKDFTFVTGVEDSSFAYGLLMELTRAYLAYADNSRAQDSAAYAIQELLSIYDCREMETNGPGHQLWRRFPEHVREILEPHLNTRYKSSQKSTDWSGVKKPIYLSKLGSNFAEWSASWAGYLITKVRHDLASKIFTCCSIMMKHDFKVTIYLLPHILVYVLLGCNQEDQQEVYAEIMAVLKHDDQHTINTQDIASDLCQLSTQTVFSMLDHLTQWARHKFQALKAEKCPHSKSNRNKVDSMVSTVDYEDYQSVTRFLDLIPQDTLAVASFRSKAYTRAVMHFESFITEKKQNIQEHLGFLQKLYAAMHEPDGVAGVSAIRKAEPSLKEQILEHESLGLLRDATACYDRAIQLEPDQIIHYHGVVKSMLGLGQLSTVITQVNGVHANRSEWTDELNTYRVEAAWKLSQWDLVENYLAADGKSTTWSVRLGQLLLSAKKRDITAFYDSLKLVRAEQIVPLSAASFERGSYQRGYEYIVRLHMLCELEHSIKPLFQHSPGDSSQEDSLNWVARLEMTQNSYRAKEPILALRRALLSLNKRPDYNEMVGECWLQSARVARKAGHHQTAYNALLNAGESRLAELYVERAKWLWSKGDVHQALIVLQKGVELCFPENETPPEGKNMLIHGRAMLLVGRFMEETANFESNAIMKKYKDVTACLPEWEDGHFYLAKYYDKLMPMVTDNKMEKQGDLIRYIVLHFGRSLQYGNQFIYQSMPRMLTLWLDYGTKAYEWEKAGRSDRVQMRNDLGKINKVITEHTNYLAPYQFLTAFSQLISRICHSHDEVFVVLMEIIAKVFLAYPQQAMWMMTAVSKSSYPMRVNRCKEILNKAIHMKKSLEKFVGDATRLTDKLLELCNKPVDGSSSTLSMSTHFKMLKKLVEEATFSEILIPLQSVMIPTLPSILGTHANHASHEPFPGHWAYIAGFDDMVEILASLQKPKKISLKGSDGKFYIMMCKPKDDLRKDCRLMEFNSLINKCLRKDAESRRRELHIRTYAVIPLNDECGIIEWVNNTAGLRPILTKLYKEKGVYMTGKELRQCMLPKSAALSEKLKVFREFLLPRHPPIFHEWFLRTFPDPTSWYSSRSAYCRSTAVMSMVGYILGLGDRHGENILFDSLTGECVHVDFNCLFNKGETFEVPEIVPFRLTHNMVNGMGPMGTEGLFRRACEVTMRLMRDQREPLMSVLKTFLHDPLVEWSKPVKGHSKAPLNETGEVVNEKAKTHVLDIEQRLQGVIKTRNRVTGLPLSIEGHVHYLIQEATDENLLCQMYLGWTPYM
T1 sequence (Q96SW2 whole entry, looked up): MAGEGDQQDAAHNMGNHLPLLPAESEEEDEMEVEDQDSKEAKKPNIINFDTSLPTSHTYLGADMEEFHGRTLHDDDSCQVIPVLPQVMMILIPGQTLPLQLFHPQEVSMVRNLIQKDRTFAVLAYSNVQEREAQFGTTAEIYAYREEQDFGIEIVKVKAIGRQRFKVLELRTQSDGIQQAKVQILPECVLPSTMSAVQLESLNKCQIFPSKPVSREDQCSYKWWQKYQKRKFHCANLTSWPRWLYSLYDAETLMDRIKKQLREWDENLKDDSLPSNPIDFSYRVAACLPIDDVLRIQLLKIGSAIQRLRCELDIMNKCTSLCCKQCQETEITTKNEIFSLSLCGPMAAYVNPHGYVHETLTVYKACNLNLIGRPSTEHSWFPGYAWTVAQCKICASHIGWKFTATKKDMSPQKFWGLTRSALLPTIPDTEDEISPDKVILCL
Chain of Serine/threonine-protein kinase ATR (Q13535 whole entry, looked up): as the sequence (Q13535 whole entry, looked up) above
Chain of Phosphatidylinositol 4,5-bisphosphate 3-kinase catalytic subunit alpha isoform (Homo sapiens) (P42336 whole entry, canonical isoform): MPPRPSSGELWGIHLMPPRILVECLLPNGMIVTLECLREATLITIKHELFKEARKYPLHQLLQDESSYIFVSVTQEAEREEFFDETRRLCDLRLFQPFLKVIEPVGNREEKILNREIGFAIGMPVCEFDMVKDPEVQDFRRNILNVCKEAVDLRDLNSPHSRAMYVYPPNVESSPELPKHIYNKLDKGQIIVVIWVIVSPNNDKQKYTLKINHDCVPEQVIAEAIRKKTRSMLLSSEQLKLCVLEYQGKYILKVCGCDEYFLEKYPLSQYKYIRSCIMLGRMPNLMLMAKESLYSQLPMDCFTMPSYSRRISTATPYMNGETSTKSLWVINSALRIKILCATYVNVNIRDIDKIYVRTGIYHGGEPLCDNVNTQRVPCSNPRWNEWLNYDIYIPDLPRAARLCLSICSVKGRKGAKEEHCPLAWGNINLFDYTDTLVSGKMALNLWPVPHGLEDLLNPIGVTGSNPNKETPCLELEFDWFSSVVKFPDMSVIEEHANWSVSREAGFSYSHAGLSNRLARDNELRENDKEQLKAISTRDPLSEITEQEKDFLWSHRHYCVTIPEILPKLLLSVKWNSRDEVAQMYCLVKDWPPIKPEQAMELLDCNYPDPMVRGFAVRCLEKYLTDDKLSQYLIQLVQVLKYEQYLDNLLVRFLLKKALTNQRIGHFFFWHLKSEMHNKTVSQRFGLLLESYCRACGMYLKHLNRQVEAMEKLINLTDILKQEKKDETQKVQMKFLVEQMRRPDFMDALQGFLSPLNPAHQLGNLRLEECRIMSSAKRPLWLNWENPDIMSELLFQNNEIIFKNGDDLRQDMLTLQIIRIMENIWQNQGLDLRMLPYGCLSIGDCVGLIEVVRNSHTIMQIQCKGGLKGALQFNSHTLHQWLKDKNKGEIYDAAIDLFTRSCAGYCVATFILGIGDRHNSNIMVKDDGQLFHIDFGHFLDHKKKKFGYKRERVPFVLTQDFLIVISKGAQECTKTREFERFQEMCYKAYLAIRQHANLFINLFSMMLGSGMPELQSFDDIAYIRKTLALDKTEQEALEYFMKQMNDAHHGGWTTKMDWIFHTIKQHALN

- MRT inf [4]: 4.65 h
- half-life [6]: 285 min
- inhibition [9]: Dose-Dependent Effect
- Emax [10]: 84.3%
- Activity [12]: inactive
- Tmax [13]: 2 h
- Activity [16]: inactive
- inhibition [17]: Dose-Dependent Effect
- AUC(0-inf) [19]: 4070 ng·h/mL
- Activity [22]: inactive
- Activity [23]: inactive
- Activity [25]: inactive
Compound: C[C@@H]1COCCN1c1cc(C2([S@@](C)(=O)=NC(=O)CCc3cn(CCCCCCCC(=O)Nc4cccc5c4C(=O)N(C4CCC(=O)NC4=O)C5=O)nn3)CC2)nc(-c2ccnc3[nH]ccc23)n1 (stereo partly specified)
- Activity (Mus musculus): inactive
- Activity (LoVo [1]): Dose-Dependent Effect
- Activity (LoVo [2]): 19.3%
- Activity [3]: Non-Toxic
- Activity (LoVo [5]): 22.4%
- Activity [7]: Non-Toxic
- Activity (LoVo [8]): 19.7%
- Activity [11]: Non-Toxic
- Activity (LoVo [14]): Active
- Activity (LoVo [15]): 13.4%
- inhibition in vivo at 12.5 mg/kg (LoVo [18]): 39.5%
- Activity (LoVo [20]): 57.9%
- Activity (LoVo [21]): 23.91%
- Activity [24]: Non-Toxic
